Results as given in patent US9163018B2, “Method of treatment of age-related macular degeneration (AMD)” (Prana Biotechnology Limited, priority 2006, dated 2015).
Read-outs that look alike come from different tables or passages of the source.

Legend:
Aβ 1-42 = target: T1, Aβ 1-42 (Homo sapiens, UniProt P05067); test: Fluorometric H2O2 assay (inhibition of Abeta H2O2 production); format: biochemical; conditions: concentration required to inhibit 50% of Abeta H2O2 production; read-out: H2O2 IC50
T1 construct: The reaction solutions contained Aβ 1-42 at concentrations
T1 sequence (P05067 672-713 limits assumed): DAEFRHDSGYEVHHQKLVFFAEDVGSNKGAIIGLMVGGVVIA
Method in brief: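 Reactions in PBS pH 7.4 at 37 C for 60 min, containing Aβ, copper and test compound. H2O2 output read as fluorescence of HRP-coupled deacetylated DCF. Fluorescence converted to H2O2 concentration via H2O2 standards.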

[1] = test system: M17 human neuroblastoma cells; test: Cytotoxicity, M17 human neuroblastoma cells; format: cell-based; conditions: for Cytotox (% viable) M17 cells at 1 μM: 1 μM test compound; for Cytotox (% viable) M17 cells at 10 μM: 10 μM test compound
Protocol: Assay 3. MTS Assay for Cell Viability
Cell viability is determined using the MTS assay. Culture medium is replaced with fresh neurobasal medium plus B27 supplements minus antioxidants. 1/10th volume MTS solution (Cell Titre 96 Aqueous One, Promega Corporation) and incubated at 37° C., 2 hrs. 200 microliter aliquots are measured with a spectrophotometer at 560 nm.

[2] = test system: dityrosine oligomerization; test: CuTy: inhibition of dityrosine oligomerization; format: biochemical; conditions: referenced to in-house standard (set as 100% inhibition)
[3] = target: T2, Abeta:Zn (25:50 μM) Synthetic Aggregations (Homo sapiens, UniProt P05067); test: Disaggregation of Abeta:Zn synthetic aggregates (ThT fluorescence); format: biochemical; conditions: for Disaggregation % Aggregate reduction at 5 μM: 5 μM test compound; for EC50: Abeta:Zn 25:50 μM aggregates
T2 construct: PB Compound Mediated Dissolution of Aggregated Abeta 1-42; purchased Keck Laboratory, Yale University School of Medicine
T2 sequence (P05067 672-713 limits assumed): as above
Method in brief: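 ThT signal (excitation 450 nm, emission 480 nm) measured after compounds at final 1, 5, 10, 25 and 50 μM acted 2 h at 37 degrees on preformed aggregates. Those aggregates came from 24 h rotating incubation of 25 μM Abeta1-42, 50 μM ZnCl2 and 50 μM ThT in PBS pH 6.6.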

[4] = Mice plasma concentration after oral dose; format: in vivo; conditions: for Mice plasma concentration: 30 min to 4 h after single or repeat oral dose of 30 mg/kg
Aβ deposits = conditions: 9 weeks; for Tg Mice % difference from control in Amyloid plaque abundance / Tg Mice % difference from control in insoluble brain amyloid burden / Tg Mice % difference from control in soluble brain amyloid burden: daily oral gavage 30 mg/kg, 13-14 months old transgenic mice
[5] = Toxicity, visual observations in mice; conditions: duration and visual observations
[6] = test system: primary cortical neuronal cultured cells; test: Test compound cytotoxicity, MTS assay, primary cortical neuronal cultures; format: cell-based, mouse; conditions: for Cytotox (% viable) Neuronal cells at 1 μM: 1 μM test compound; for Cytotox (% viable) Neuronal cells at 10 μM: 10 μM test compound
Method in brief: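 Primary cortical neurons were cultured five days in Neurobasal/B27, then exposed on day six to compounds (from 2.5 mM DMSO stocks) in medium minus antioxidants, in triplicate for 4 days at 37° C. Viability was measured by MTS, 2 h at 37° C, absorbance at 560 nm.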

[7] = mouse, in vivo, 10 days

| Compound | IC50 (Aβ 1-42) [µM] | Cytotox (% viable) M17 cells at 1 μM [1] [%] | Cytotox (% viable) M17 cells at 10 μM [1] [%] | CuTy % inhibition of dityrosine oligomerization [2] | Disaggregation % Aggregate reduction at 5 μM [3] [%] | EC50 [3] [µM] | Mice plasma concentration [4] | Tg Mice % difference from control in Amyloid plaque abundance (Aβ deposits) | Tg Mice % difference from control in insoluble brain amyloid burden (Aβ deposits) | Tg Mice % difference from control in soluble brain amyloid burden (Aβ deposits) | Toxicity at 30 mg/kg [5] | Cytotox (% viable) Neuronal cells at 1 μM [6] [%] | Cytotox (% viable) Neuronal cells at 10 μM [6] [%] | Toxicity at 30 mg/kg [7] | Mice plasma concentration at 10 mg/kg ([4]; oral dose 10 mg/kg) | Tg Mice effect on brain amyloid burden and plaque at 10 mg/kg (Aβ deposits; daily oral gavage 10 mg/kg) | Toxicity at 10 mg/kg ([5]; 10 mg/kg) |
| --- | --- | --- | --- | --- | --- | --- | --- | --- | --- | --- | --- | --- | --- | --- | --- | --- | --- |
| CCCCNC(=O)c1cnc2c(O)c(I)ccn2c1=O [PB 1160] | 0.75 | 85.3 | 63.4 | CuTy: 95% inhibition | 56.8 | 4.05 | Up to 27,598 ng/mL | decrease | No change | −25% | 10 days, none |  |  |  |  |  |  |
| O=c1c2c(Cl)cc(Cl)c(O)c2ncn1CC1CC1 [PB-1076] |  | 96.2 | 76.8 | 100% inhibit | 15.1 | > 20 | Up to 2698 ng/ mL in mice ng/mL | −29% | −26% | −37% | 11 days, none | 116 | 105 |  |  |  |  |
| CCCCc1cnc2c(O)c(I)ccn2c1=O [PB 1145] | 0.66 | 101.7 | 58.7 |  | 28 | 7.2 |  |  |  |  |  |  |  | 10 days, 2/4 death |  |  |  |
| Cc1nc(Cn2cnc3c(O)c(Cl)cc(Cl)c3c2=O)cs1 [PB-1084] |  | 97 | 95.7 | CuTy: 75% inhibition | 23.4 | 40.7 | Up to 2439 ng/ mL ng/mL | decrease | No change | −29% | 10 days, none | 100 | 93 |  |  |  |  |
| O=c1c2ccc(I)c(O)c2ncn1-c1ccc(F)cc1F [PB 1157] | 0.38 | 90.3 | 80.3 |  | 45 | 8.1 |  |  |  |  |  |  |  | 6 days, 2/4 deaths |  |  |  |
| Br.CNCc1nc2c(O)c(Cl)cc(Cl)c2c(=O)n1C [PB 1161] |  | 101.4 | 112.5 | 100% inhib | 27 | > 20 | Up to 510.4 ng/mL | −64% | No change | No change | 10 days, none | 105.4 | 103.9 |  |  |  |  |
| O=c1c2ccc(I)c(O)c2ncn1CC1CC1 [PB 1120] | 0.28 | 106.9 | 62 | CuTy: 25% inhibition | 47.5 | 5.6 | Up to 2508 ng/ mL ng/mL | Decrease | No change | No change | 10 days, none |  |  |  |  |  |  |
| O=c1c2c(Cl)cc(Cl)c(O)c2ncn1Cc1ccccn1 [PB-1077] |  | 97.7 | 91 | CuTy: 50% inhibition | 24 | > 20 | Up to 984 ng/ mL in mice ng/mL | −30% | No change | No change | 10 days, none | 99 | 98 |  |  |  |  |
| Cc1noc(C)c1Cn1cnc2c(O)c(Cl)cc(Cl)c2c1=O [PB-1085] |  | 104.9 | 76.2 | CuTy: 90% inhibition | 25 | > 20 | Up to 3644 ng/ mL ng/mL | −43% | −34% | increase | 10 days, none | 99 | 72 |  |  |  |  |
| O=C(NCc1ccc(F)cc1)c1cnc2c(O)c(I)ccn2c1=O [PB 1158] | 0.99 | 104.7 | 56 |  | 10 | > 20 |  |  |  |  |  |  |  | 7 days, 4/4 deaths |  |  |  |
| CCCc1cnc2c(O)cccn2c1=O [PB 1149] | 0.3 | 79.1 | 45.2 | CuTy: 95% inhibition | 49 | 5 | Up to 690 ng/ml ng/mL | −45% | No change | No change | 10 days, none | 86.2 | 12.4 |  |  |  |  |
| CCc1cnc2c(O)c(I)ccn2c1=O [PB 1127] | 0.28 | 82.5 | 23.3 | 25% inhibit | 55 | 4.5 |  |  |  |  |  |  |  |  | At 10 mg/kg: Up to 7082 ng/ mL ng/mL | At 10 mg/kg No effect | At 10 mg/kg 10 days, none |
| O=c1c2c(Cl)cc(Cl)c(O)c2ncn1Cc1ccn2ccnc2c1 [PB 1252] | 0.72 | 105.4 | 105.1 | CuTy: 50% inhibition |  |  | Up to 1465.4 ng/mL |  |  |  | 10 days, none | 94.6 | 103.1 |  |  |  |  |
